Data from the NIST ThermoML archive (doi:10.1016/j.fluid.2006.03.015).

Test: molar heat capacity at constant pressure
Details: 101.33 kPa, Liquid

CCn1cc[n+](C)c1.O=S(=O)([O-])C(F)(F)F [1-ethyl-3-methylimidazolium trifluoromethanesulfonate]
Details | molar heat capacity at constant pressure [J/K/mol]
313.13 K, Large sample (1 g) DSC | 384
315.15 K, Small sample (50 mg) DSC | 386
318.13 K, Large sample (1 g) DSC | 385
320.15 K, Small sample (50 mg) DSC | 388
323.12 K, Large sample (1 g) DSC | 386
325.15 K, Small sample (50 mg) DSC | 390
328.15 K, modulated-temperature differential scanning calorimetry MDSC | 392
328.16 K, Large sample (1 g) DSC | 384
330.15 K, Small sample (50 mg) DSC | 392
333.14 K, Large sample (1 g) DSC | 383
333.15 K, modulated-temperature differential scanning calorimetry MDSC | 395
335.15 K, Small sample (50 mg) DSC | 394
338.15 K, modulated-temperature differential scanning calorimetry MDSC | 397
338.17 K, Large sample (1 g) DSC | 387
340.15 K, Small sample (50 mg) DSC | 395
343.15 K, modulated-temperature differential scanning calorimetry MDSC | 398
343.17 K, Large sample (1 g) DSC | 391
345.15 K, Small sample (50 mg) DSC | 396
348.13 K, Large sample (1 g) DSC | 392
348.15 K, modulated-temperature differential scanning calorimetry MDSC | 400
350.15 K, Small sample (50 mg) DSC | 397
353.15 K, modulated-temperature differential scanning calorimetry MDSC | 402
353.16 K, Large sample (1 g) DSC | 393
355.15 K, Small sample (50 mg) DSC | 399
358.12 K, Large sample (1 g) DSC | 395
358.15 K, modulated-temperature differential scanning calorimetry MDSC | 404
360.15 K, Small sample (50 mg) DSC | 401
363.14 K, Large sample (1 g) DSC | 398
363.15 K, modulated-temperature differential scanning calorimetry MDSC | 405
365.15 K, Small sample (50 mg) DSC | 403
368.14 K, Large sample (1 g) DSC | 400
368.15 K, modulated-temperature differential scanning calorimetry MDSC | 408
370.15 K, Small sample (50 mg) DSC | 405
373.14 K, Large sample (1 g) DSC | 401
373.15 K, modulated-temperature differential scanning calorimetry MDSC | 409
375.15 K, Small sample (50 mg) DSC | 406
378.13 K, Large sample (1 g) DSC | 402
378.15 K, modulated-temperature differential scanning calorimetry MDSC | 411
380.15 K, Small sample (50 mg) DSC | 409
383.15 K, modulated-temperature differential scanning calorimetry MDSC | 412
383.17 K, Large sample (1 g) DSC | 405
385.15 K, Small sample (50 mg) DSC | 410
388.15 K, Large sample (1 g) DSC | 407
388.15 K, modulated-temperature differential scanning calorimetry MDSC | 414
390.15 K, Small sample (50 mg) DSC | 412
393.14 K, Large sample (1 g) DSC | 410
393.15 K, modulated-temperature differential scanning calorimetry MDSC | 416
395.15 K, Small sample (50 mg) DSC | 414
398.15 K, modulated-temperature differential scanning calorimetry MDSC | 416
398.17 K, Large sample (1 g) DSC | 411
400.15 K, Small sample (50 mg) DSC | 416
403.15 K, Large sample (1 g) DSC | 414
403.15 K, modulated-temperature differential scanning calorimetry MDSC | 418
405.15 K, Small sample (50 mg) DSC | 418
408.12 K, Large sample (1 g) DSC | 416
408.15 K, modulated-temperature differential scanning calorimetry MDSC | 419
410.15 K, Small sample (50 mg) DSC | 420
413.15 K, Large sample (1 g) DSC | 419
413.15 K, modulated-temperature differential scanning calorimetry MDSC | 421
415.15 K, Small sample (50 mg) DSC | 422
418.17 K, Large sample (1 g) DSC | 421
420.15 K, Small sample (50 mg) DSC | 424
423.14 K, Large sample (1 g) DSC | 422
425.15 K, Small sample (50 mg) DSC | 425

CCCCCC[n+]1ccn(C)c1.O=S(=O)([N-]S(=O)(=O)C(F)(F)F)C(F)(F)F
Details | molar heat capacity at constant pressure [J/K/mol]
318.17 K, Large sample (1 g) DSC | 668
320.15 K, Small sample (50 mg) DSC | 672
323.13 K, Large sample (1 g) DSC | 672
323.15 K, modulated-temperature differential scanning calorimetry MDSC | 680
325.15 K, Small sample (50 mg) DSC | 675
328.14 K, Large sample (1 g) DSC | 673
328.15 K, modulated-temperature differential scanning calorimetry MDSC | 682
330.15 K, Small sample (50 mg) DSC | 679
333.15 K, modulated-temperature differential scanning calorimetry MDSC | 685
333.16 K, Large sample (1 g) DSC | 673
335.15 K, Small sample (50 mg) DSC | 681
338.15 K, modulated-temperature differential scanning calorimetry MDSC | 688
338.16 K, Large sample (1 g) DSC | 675
340.15 K, Small sample (50 mg) DSC | 684
343.15 K, modulated-temperature differential scanning calorimetry MDSC | 689
343.17 K, Large sample (1 g) DSC | 676
345.15 K, Small sample (50 mg) DSC | 686
348.15 K, modulated-temperature differential scanning calorimetry MDSC | 693
348.18 K, Large sample (1 g) DSC | 677
350.15 K, Small sample (50 mg) DSC | 688
353.13 K, Large sample (1 g) DSC | 680
353.15 K, modulated-temperature differential scanning calorimetry MDSC | 695
355.15 K, Small sample (50 mg) DSC | 691
358.12 K, Large sample (1 g) DSC | 682
358.15 K, modulated-temperature differential scanning calorimetry MDSC | 698
360.15 K, Small sample (50 mg) DSC | 693
363.15 K, modulated-temperature differential scanning calorimetry MDSC | 701
363.16 K, Large sample (1 g) DSC | 686
365.15 K, Small sample (50 mg) DSC | 696
368.15 K, modulated-temperature differential scanning calorimetry MDSC | 705
368.18 K, Large sample (1 g) DSC | 689
370.15 K, Small sample (50 mg) DSC | 700
373.13 K, Large sample (1 g) DSC | 691
373.15 K, modulated-temperature differential scanning calorimetry MDSC | 706
375.15 K, Small sample (50 mg) DSC | 703
378.13 K, Large sample (1 g) DSC | 694
378.15 K, modulated-temperature differential scanning calorimetry MDSC | 709
380.15 K, Small sample (50 mg) DSC | 706
383.15 K, modulated-temperature differential scanning calorimetry MDSC | 711
383.17 K, Large sample (1 g) DSC | 697
385.15 K, Small sample (50 mg) DSC | 709
388.15 K, modulated-temperature differential scanning calorimetry MDSC | 714
388.16 K, Large sample (1 g) DSC | 698
390.15 K, Small sample (50 mg) DSC | 713
393.14 K, Large sample (1 g) DSC | 703
393.15 K, modulated-temperature differential scanning calorimetry MDSC | 716
395.15 K, Small sample (50 mg) DSC | 716
398.15 K, modulated-temperature differential scanning calorimetry MDSC | 718
398.18 K, Large sample (1 g) DSC | 706
400.15 K, Small sample (50 mg) DSC | 720
403.15 K, modulated-temperature differential scanning calorimetry MDSC | 720
403.16 K, Large sample (1 g) DSC | 709
405.15 K, Small sample (50 mg) DSC | 725
408.13 K, Large sample (1 g) DSC | 712
408.15 K, modulated-temperature differential scanning calorimetry MDSC | 723
410.15 K, Small sample (50 mg) DSC | 728
413.15 K, modulated-temperature differential scanning calorimetry MDSC | 723
413.16 K, Large sample (1 g) DSC | 716
415.15 K, Small sample (50 mg) DSC | 732
418.13 K, Large sample (1 g) DSC | 719
420.15 K, Small sample (50 mg) DSC | 736
425.15 K, Small sample (50 mg) DSC | 739

C1CCOC1 [tetrahydrofuran]
Small sample (50 mg) DSC
Details | molar heat capacity at constant pressure [J/K/mol]
180.15 K | 105.5
185.15 K | 105.6
190.15 K | 105.8
195.15 K | 106
200.15 K | 106.3
205.15 K | 106.5
210.15 K | 106.7
215.15 K | 107.2
220.15 K | 107.6
225.15 K | 107.9
230.15 K | 108.5
235.15 K | 109.2
240.15 K | 109.8
245.15 K | 110.6
250.15 K | 111.5
255.15 K | 112.4
260.15 K | 113.4
265.15 K | 114.4
270.15 K | 115.5
275.15 K | 116.6
280.15 K | 117.9
285.15 K | 119.2
290.15 K | 120.3
295.15 K | 121.7
300.15 K | 123.1
305.15 K | 124.5
310.15 K | 126
315.15 K | 127.3
320.15 K | 128.8
325.15 K | 130.5
